From a melting point compilation (Tetko et al.; mined from patent text by program, amines drawn as free bases though some values may be those of a salt)

melting point [°C] | SMILES
158 to 160 | COc1ccc(COC(=O)CC(=O)Oc2ccc3sc4nc(-c5ccc(OC)cc5)cn4c3c2)cc1
177 to 180 | N#Cc1ccc(N(Cc2ccc(OS(N)(=O)=O)cc2)n2cnnc2)cc1-c1ccc(C(F)(F)F)cc1
79 | C1=NNC(c2ccccc2)c2ccccc21 (stereo not drawn)
69 to 73 | CC(C)(C)NCC(O)c1ccc(OCc2ccccc2)cn1 (stereo not drawn)
42 to 43 | Cc1ccccc1Sc1cccc(C=O)c1O
179 to 180 | CCc1cc2ccccn2c1C(=O)c1ccc(O)cc1
250 | Cc1nc(N)nc(N)c1-c1c(Cl)cccc1Cl
70 to 71 | CCOC(=O)C=Cc1ccc(O)cc1
160 to 163 | CC(C)N1C(=O)C2CC2(c2ccc(N)cc2)C1=O (stereo not drawn)
165 | CCc1cn([C@H]2C[C@H](OC(C)=O)[C@@H](/C=C/C(=O)Cc3c(Cl)cccc3Cl)O2)c(=O)[nH]c1=O
193 to 194 | Cc1noc(NC(=O)N2CCN(c3nccc(-c4cccc(F)c4F)n3)CC2)c1C
209 to 210 | CC(=O)NCC1CN(c2ccc(N3CCN(C(=O)CCN4CCOCC4)CC3)c(F)c2)C(=O)O1 (stereo not drawn)
123 to 126 | Cn1ccnc1Sc1ccc(F)cc1[N+](=O)[O-]
> 246 | Clc1cc2nc3cc4ccccc4[nH]c-3c2cc1Br
267 to 269 | O=C1C2Cc3c(nc(Br)n3Cc3ccccc3)CN2C(=O)N1c1ccccc1 (stereo not drawn)
83 to 84 | COc1ccc(N=C=O)cc1
178 to 180 | NC(=O)/C=C1\CCc2c(F)cc(F)cc21
114 to 116 | CCCc1nn(C)c2c(-c3ccc(SC)cc3)nc(-c3ccc(F)cc3)nc12

melting point [°C] | SMILES
170 | CS(=O)(=O)N1CCN([C@@H](CNC(=O)c2ccc(OCc3cccc4ccccc34)cc2)C(=O)NO)CC1
109 to 114 | CN(C)c1ccc(NC(=O)N(C[C@H]2CCC[C@H](CN(C(=O)Nc3ccc(N(C)C)cc3)C3CCCCCC3)C2)C2CCCCCC2)cc1 (relative stereo)
196 | O=C(CC1CCC1)N[C@H]1CC[C@H](CCN2CCC(c3cccc4c3CCO4)CC2)CC1
174 to 175 | Clc1cccc(NC2=Nc3ccc(Cl)cc3CS2)c1
109 to 111 | CCS(=O)(=O)NC1CCCOc2ccccc21 (stereo not drawn)
286 to 287 | Cc1oc2cc(O)ccc2c(=O)c1C(=O)O
240 to 242 | COc1cc2c(cc1-c1ccccc1F)NC(=O)CC(c1ccnc(C#N)c1)=N2
121 to 122 | Cc1cc2nc(Cl)c(Cl)nc2c([N+](=O)[O-])c1Cl
168 to 170 | CC1(C)CC(=O)C(C(=O)c2cccc3nnsc23)C(=O)C1
186 to 187 | O=c1cc(CCCl)c2ccccc2[nH]1
146 to 148 | CCOc1ccc(NC(=O)C(C)(C)O)cc1
253 to 255 | O=C(O)c1ccc2oc3c(c(=O)c2c1)CCCC3
176 to 177 | O=C(c1cc2ccc(Br)cc2o1)c1cc2ccc(Br)cc2o1
197 to 199 | CCCCCC(CC(=O)Nc1cc(C(=O)O)ccc1C(C)(C)C)c1ccc(C(=O)CC)cc1OC (stereo not drawn)
153 to 154 | O=C(O)[C@H]1C=C[C@H](c2ccccc2)n2c(=O)n(CCS)c(=O)n21 (relative stereo)
182 to 184 | O=C(CCCO)NCc1cccc(Nc2n[nH]c3ncnc(Nc4cccc(Cl)c4)c23)c1
192 to 195 | O=S(=O)(Cl)c1ccc(Nc2nccc(Cl)n2)cc1
189 to 190 | COc1nc2cccc(C(=O)O)c2n1Cc1ccc(-c2ccccc2-c2nc(=O)o[nH]2)cc1

The remaining lines, values behind:

SMILES | melting point [°C]
CC(=O)NC1CCC(NC(=O)C2CC3c4cccc5c4c(cn5C(C)C)CC3N(C)C2)CC1 (stereo not drawn) | > 280
CC(C)CCC1C(=O)NS(=O)(=O)N1C (stereo not drawn) | 212 to 214
O=C(Nc1cccc(-c2ccnc3c(C(=O)c4cccs4)cnn23)c1)c1cccc(Br)c1 | > 300
CCN(CC)CCCN1CCN(CCN2CCCCC2)C1=C(C#N)C#N | 58 to 61
C=CCNc1ccc(C(=O)O)cc1[N+](=O)[O-] | 195 to 200
COc1ccc(C(C)=O)cc1C(C)=CC(=O)O | 194
Cn1cc([N+](=O)[O-])cc1CO | 89 to 90
O=C(c1ccccc1)C(O)n1cncc1Cl (stereo not drawn) | 201 to 203
O=C(c1ccc(C2=CCCc3ccccc32)cc1)N1Cc2cccn2Cc2ccccc21 | 81
CC(C)(C)c1cc(/C=C/c2nnc(S(C)(=O)=O)s2)cc(C(C)(C)C)c1O | 235
O=C(O)c1ccc2c(c1)CCCS2(=O)=O | 246 to 249
CC1(C2=C(O)C(=O)c3ccccc3C2=O)CCCCC1 | 79
c1ccc(-c2nc(-c3ccc4cc(OCc5nnn[nH]5)ccc4c3)cs2)cc1 | 226 to 228
BrCCc1c[nH]c2ccccc12 | 57 to 60
CC1COc2cccc3[nH]c(=O)n1c23 (stereo not drawn) | 137
Cc1cc(C)c(-c2nc(Cl)nc(Cl)n2)c(C)c1 | 85 to 91
CC1(C)OCc2cc(CCNC(=O)C(F)(F)F)ccc2O1 | 91 to 93
Cc1c(F)c(N2CCNCC2)cc2c1c(=O)c(C(=O)O)cn2C1CC1 | 226 to 228
CN1CCc2c(F)c(F)c(N)c3c(=O)c(C(=O)O)cn1c23 | > 290

SMILES | melting point [°C]
CC(C)(C)OC(=O)N1Cc2cscc2C1 | 36 to 38
CCOC(=O)C(NC(C)=O)(C(=O)OCC)[C@@H]1CC(=O)C[C@H]1N=[N+]=[N-] (relative stereo) | 121 to 122
CN(C)c1ccc2c3c(cccc13)C(=O)c1ccccc1-2 | 125 to 127
FC(F)(F)Sc1ccc(-c2ccc(Cl)cc2)[nH]1 | 34 to 39
CCOC(=O)c1cnc(Nc2cc(C)ccc2C)[nH]c1=O | 252 to 254
CN(C)c1ccc(C(=O)CCCN2CCC(C(O)(c3ccccc3)c3ccccc3)CC2)cc1 | 148 to 150
CC(C)(C)OC(=O)[C@@H]1CS[C@H](c2ccccc2)N1C(=O)CNC(=O)Nc1cccc(CC(=O)O)c1 | 140
COc1ccc(-c2nc3ccccc3nc2-c2ccc(OC)cc2)cc1 | 148
CCNC(=S)Nc1nc2ccc(OC(F)(F)F)cc2s1 | 199 to 200
COc1cc(C)c(NC(=O)CC(C)(C)C)c(C)c1Cc1ccc(C(C)C)cc1 | 181 to 182
O=C(Nc1cccnc1)N1CCN(c2nc(-c3cccc(F)c3F)cs2)CC1 | 172 to 173
CCCc1ccc(OC(C)=O)c(C2(OC(C)=O)C(=O)c3ccccc3C2=O)c1 | 108 to 111
CCc1noc(-c2cc3c4cc(S(=O)(=O)N(C)C)ccc4n(CCCCl)c3cn2)n1 | 223 to 224
O=C(O)c1ncn2c1[C@@H]1CCN1C(=O)c1c(Br)cccc1-2 | 178 to 180
Nc1ncccc1OCc1cc2c(cc1Cl)OCO2 | 100 to 104
Cc1oc(-c2ccccc2)nc1CCOc1ccc(C[C@H](NC(=O)C=Cc2ccco2)C(=O)O)cc1 | 199 to 201
CCc1[nH]n(C2CCCC2)c2nc(-c3ccc4nccn4c3)nc(=O)c1-2 | > 300
COc1ccc(C(O)CNCCc2ccc(OC)c(OC)c2)cc1 (stereo not drawn) | 92
